Tested on: neural stem cell line, CTX0E03
Assay: Hypothermic / ambient shelf-life viability studies (trypan blue exclusion)
Assay type: cell-based, human
Conditions: in saline solution at ambient temperature
Description: Cultures of cells were expanded in T-flasks until 70 to 90% confluent. The spent medium was aspirated and then the cell monolayer washed with HBSS without magnesium or calcium ions (Invitrogen). The wash was aspirated and then the cells dissociated with recombinant bovine trypsin (Lonza TrypZean/EDTA) for 5 minutes at 37° C. The dissociated cell suspension was mixed with a trypsin inhibitor solution (0.55 mg/ml soybean trypsin inhibitor [Sigma], 1% HSA [Grifols], 25 U/ml benzon nuclease [VWR] in DMEM:F12 [Invitrogen]) and centrifuged for 5 minutes at ˜500×g. The supernatant was aspirated and the cell pellet washed in 50% HypoThermosol®-FRS (BioLife Solutions, Inc) in DMEM:F12 followed by centrifugation at ˜500×g for 5 minutes. The cell pellet was then suspended in HypoThermosol®-FRS at a concentration of 40,000 to 60,000 cells/μl. […]
Shelf-life studies have assessed the viability of the therapeutic and commercially manufactured neural stem cell line, CTX0E03 (Pollock et al., 2006), formulated in saline or using the method described in this invention using HTS-FRS. […]
Samples of cells were mixed 1:1 with 0.4% Trypan blue (Sigma) and loaded onto a haemocytometer. […] The viability and concentration of the sample is determined by counting the cells within a grid of the haemocytometer using 10× objective phase-contrast microscopy.

SMILES: Cc1c(C)c2c(c(C)c1O)CCC(C)(C(=O)O)O2 (stereo not shown) [Trolox]
- time neural stem cells are preserved: 2 days

— patent publication US9265795B2, “Cellular compositions for use in therapy” (RENEURON LIMITED, priority 2008, dated 2016)
